Source: the supplement of paper PMC5908809

How the values were obtained:
[1] = tested on: normal NK cells expanded with K562-aAPC; test: percent inhibition of viability; higher = more inhibition; details: 72 h, IL-2 2.5 ng/mL
Procedure: (§1)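 Drug sensitivity and resistance testing on K562-aAPC-expanded normal NK cells: 5 concentrations (10-fold steps over a 10,000-fold range), 72 h at 37 °C, viability by CellTiter-Glo normalised to DMSO and benzethonium chloride controls; DSS from the fitted curve.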

[2] = tested on: DERL-7 (IL-2 2.5 ng/mL); test: as above; details: 72 h
[3] = tested on: IMC-1 (IL-2 20 ng/mL); test: as above; details: 72 h
[4] = tested on: KAI3 (IL-2 2.5 ng/mL); test: as above; details: 72 h
[5] = tested on: KHYG-1 (IL-2 2.5 ng/mL); test: as above; details: 72 h
[6] = tested on: NK-92 (IL-2 2.5 ng/mL); test: as above; details: 72 h
[7] = tested on: NK-YS (IL-2 2.5 ng/mL); test: as above; details: 72 h
[8] = tested on: NKL (IL-2 2.5 ng/mL); test: as above; details: 72 h
[9] = tested on: SNK-6 (IL-2 2.5 ng/mL); test: as above; details: 72 h
[10] = tested on: YT (IL-2 2.5 ng/mL); test: as above; details: 72 h
[11] = tested on: normal primary NK cells, pool 1 (3 donors) (IL-2 2.5 ng/mL); test: as above; details: 72 h
[12] = tested on: normal primary NK cells, pool 1 (3 donors), resting (IL-2 0 ng/mL); test: as above; details: 72 h
[13] = tested on: normal primary NK cells, pool 2 (3 donors) (IL-2 2.5 ng/mL); test: as above; details: 72 h
[14] = tested on: normal primary NK cells, pool 3 (3 donors) (IL-2 2.5 ng/mL); test: as above; details: 72 h
[15] = tested on: normal NK cells expanded with K562-aAPC; test: drug sensitivity score (DSS) (DSS units); higher = more sensitive; extreme values may be limits of the assay; details: 72 h; IL-2 2.5 ng/mL
Procedure: as §1

[16] = tested on: DERL-7 (IL-2 2.5 ng/mL); test: as above; details: 72 h
[17] = tested on: IMC-1 (IL-2 20 ng/mL); test: as above; details: 72 h
[18] = tested on: KAI3 (IL-2 2.5 ng/mL); test: as above; details: 72 h
[19] = tested on: KHYG-1 (IL-2 2.5 ng/mL); test: as above; details: 72 h
[20] = tested on: NK-92 (IL-2 2.5 ng/mL); test: as above; details: 72 h
[21] = tested on: NK-YS (IL-2 2.5 ng/mL); test: as above; details: 72 h
[22] = tested on: NKL (IL-2 2.5 ng/mL); test: as above; details: 72 h
[23] = tested on: SNK-6 (IL-2 2.5 ng/mL); test: as above; details: 72 h
[24] = tested on: YT (IL-2 2.5 ng/mL); test: as above; details: 72 h
[25] = tested on: normal primary NK cells, pool 1 (3 donors) (IL-2 2.5 ng/mL); test: as above; details: 72 h
[26] = tested on: normal primary NK cells, pool 1 (3 donors), resting (IL-2 0 ng/mL); test: as above; details: 72 h
[27] = tested on: normal primary NK cells, pool 2 (3 donors) (IL-2 2.5 ng/mL); test: as above; details: 72 h
[28] = tested on: normal primary NK cells, pool 3 (3 donors) (IL-2 2.5 ng/mL); test: as above; details: 72 h

CCOc1ccn(-c2ccc(F)cc2)c(=O)c1C(=O)Nc1ccc(Oc2ccnc(N)c2Cl)c(F)c1 (max concentration tested 2500 nM)
percent inhibition of viability [%]
Details	0.25 nM	2.5 nM	25 nM	250 nM	2500 nM
[1]	2.01	1.6	-0.61	0.57	7.12
[2]	0.56	6.06	-1.35	-3.94	-13.7
[3]	1.35	4.61	9.25	10.7	18.1
[4]	-2.82	-5.11	1.22	-8.32	20.1
[5]	2.8	3.63	7.75	3.92	7.23
[6]	3.4	-2.02	21.5	-9.18	16.5
[7]	2.13	-0.09	0.55	-3.25	13.2
[8]	-8.21	-0.56	-2.88	6.9	-2.79
[9]	22.9	33.8	31.2	18.3	22.9
[10]	2.07	4.23	5.47	0.52	37
[11]	0.3	-5.73	-0.6	-11.2	-8.87
[12]	1.56	-12.4	-1.07	-26.3	-16.3
[13]	-3.75	2.69	-0.75	-6	3.09
[14]	-11.7	1.36	-4.15	-4.08	-3.34

Details	drug sensitivity score
[15]	0
[16]	0
[17]	1.25
[18]	0.35
[19]	0
[20]	0.14
[21]	0.06
[22]	0
[23]	0.23
[24]	1.85
[25]	0
[26]	0
[27]	0
[28]	0

O=C(/C=C/c1cccc(S(=O)(=O)Nc2ccccc2)c1)NO [Belinostat] (max concentration tested 10000 nM)
percent inhibition of viability [%]
Details	1 nM	10 nM	100 nM	1000 nM	10000 nM
[1]	0.58	6.04	16.8	99.6	101
[2]	-0.73	5.09	23.1	100	101
[3]	2.36	-0.13	20.2	99.6	101
[4]	7.26	14.3	51.9	94.6	109
[5]	-0.75	-0.46	35	108	110
[6]	5.07	14.1	52.2	107	106
[7]	-1.97	-1.76	21	97.5	109
[8]	5.5	10.4	37.5	87.9	108
[9]	-0.17	-5.01	28.3	97.2	101
[10]	4.17	3.96	11.8	105	109
[11]	3.19	9.82	43.7	96.4	98.7
[12]	-4.94	0.46	53.2	87.1	91.7
[13]	-8.09	0.56	31	93.9	95.6
[14]	-2.35	-1.35	15.5	96.3	98.3

Details	drug sensitivity score
[15]	20.8
[16]	21.6
[17]	21.2
[18]	24.1
[19]	22.9
[20]	24.5
[21]	20.9
[22]	20.9
[23]	21.7
[24]	20.1
[25]	22.5
[26]	22.9
[27]	21.2
[28]	20.1

CS(=O)(=O)c1ccc(C(=O)Nc2ccc(Cl)c(-c3ccccn3)c2)c(Cl)c1 [Vismodegib] (max concentration tested 10000 nM)
percent inhibition of viability [%]
Details	1 nM	10 nM	100 nM	1000 nM	10000 nM
[1]	-6.55	-2.58	-4.57	6.27	3.14
[2]	5.54	5.58	5.06	6.24	36.2
[3]	-2.4	2.13	-1.82	2.66	8.93
[4]	-6.47	-10.6	-10.8	8.7	6.77
[5]	-7.27	-4.1	-4.53	-3.56	13.7
[6]	1.83	1.49	-0.7	17.8	59.3
[7]	-6.25	-5.83	-1.92	0.14	14.4
[8]	-2.06	-5.75	8.65	9.14	39.8
[9]	-24.4	-21.3	-33.1	-9.73	9.74
[10]	-2.78	-9.59	3.13	-6.38	24.6
[11]	-0.96	12.3	5.5	3.58	12.3
[12]	-4.18	4.86	12.4	12.3	11.2
[13]	-4.51	8.63	4.94	7.5	11.8
[14]	-5.07	-0.78	8.43	-1.07	0.11

Details	drug sensitivity score
[15]	0
[16]	2.77
[17]	0
[18]	0
[19]	0.07
[20]	5.87
[21]	0.2
[22]	3.21
[23]	0
[24]	0.65
[25]	0
[26]	1.51
[27]	0.05
[28]	0

CS(=O)(=O)OCCCCOS(C)(=O)=O [Busulfan] (max concentration tested 100000 nM)
percent inhibition of viability [%]
Details	10 nM	100 nM	1000 nM	10000 nM	100000 nM
[1]	-2.86	1.34	1.8	12.1	11.6
[2]	-0.3	0.71	-1.86	-6.29	37.3
[3]	-7.58	1.98	-0.95	5.86	97.7
[4]	-3.8	4.61	-6.45	7.92	92.1
[5]	-5.97	2.86	-2.89	5.78	101
[6]	-12.9	1.55	8.88	-9.97	98.6
[7]	-7.3	-2.96	-5.68	2.67	93.2
[8]	-14.8	-1.78	-0.6	5.56	99.4
[9]	6.87	18.8	18.7	29.4	98
[10]	-5.22	1.87	-2.46	-4.04	47.7
[11]	0.77	-7.48	-4.93	-16	-3.43
[12]	9.92	-5.43	4.09	-28.6	-11.5
[13]	-6.89	-5.87	7.32	-4.08	50.9
[14]	0.71	-2.78	10.5	-3.81	35.4

Details	drug sensitivity score
[15]	0.67
[16]	1.44
[17]	6.28
[18]	6.36
[19]	6.48
[20]	4.82
[21]	5.53
[22]	6.32
[23]	8.82
[24]	2.18
[25]	0
[26]	0
[27]	2.38
[28]	1.42

O=C(c1ccc(OCCN2CCCCC2)cc1)c1c(-c2ccc(O)cc2)sc2cc(O)ccc12 [Raloxifene] (max concentration tested 10000 nM)
percent inhibition of viability [%]
Details	1 nM	10 nM	100 nM	1000 nM	10000 nM
[1]	-3.9	-1.26	0.77	10.2	53.2
[2]	-6.41	2.29	1.8	13.7	68.8
[3]	0.84	1.43	3.84	8.59	10.4
[4]	-6.87	-0.15	5.98	4.92	96.1
[5]	-4.91	3.37	0.98	11	54.9
[6]	1.94	6.91	-0.59	-1.98	92.6
[7]	0.85	-3.33	4.79	5.35	40.5
[8]	1.76	7.99	-6.69	11.2	52.2
[9]	-9.5	-3.4	-9.29	-36.4	67.1
[10]	-1.19	5.28	-0.98	1	77
[11]	1.01	-6.07	1.09	-7.43	20.9
[12]	2.49	-4.47	-6.62	-34	38.5
[13]	-6.02	-3.78	1.06	2.77	29.1
[14]	-5.87	-1.12	5.04	8.98	16.6

Details	drug sensitivity score
[15]	4.52
[16]	6.02
[17]	0
[18]	6.04
[19]	4.74
[20]	4.99
[21]	2.92
[22]	4.58
[23]	2.49
[24]	4.39
[25]	0.41
[26]	1.08
[27]	1.67
[28]	0.74
